Results: publication PMC11956017, “Design of Benzyl-triazolopyrimidine-Based NADPH Oxidase Inhibitors Leads to the Discovery of a Potent Dual Covalent NOX2/MAOB Inhibitor” (Journal of Medicinal Chemistry, 2025)
“Also recorded” adds a separate entry of the source.

Experiments:
Type in all cases: biochemical
Purified human NOX2 = target: T1, Purified human NOX2 (Homo sapiens, UniProt P04839); experiment: Purified human NOX2-p22phox, NADPH depletion assay; conditions: for IC50: 200 nM NOX2, 240 μM NADPH, activated
T1 construct: NOX2 was expressed as native protein in X-CGD PLB-985 cells transduced with the RD114 pseudotyped MFGS-NOX2 vector; made in house; host or cells: X-CGD PLB-985 cells transduced with MFGS-NOX2; Cytosolic proteins made in E. coli
Description: The NADPH depletion assay on human NOX2 for IC50 determinations was performed as described[40],[42] with variations for covalent inhibition. Briefly, the catalytic activity was measured by monitoring the absorbance at 340 nm with a Cary 100 UV–vis spectrophotometer (Varian). A 200 nM purified NOX2-p22^phox heterodimer was added to a 200 μL reaction mix containing a 65 mM sodium phosphate buffer (pH 7.0), 50 μM FAD, 130 μM LiDS, and 1 μM recombinant p67^phox, p47^phox, and Rac1 Q61L. Inhibitors were added at varying concentrations (7 nM–200 μM) and incubated for 1 h at 25 °C. The reaction was started by the addition of 240 μM NADPH.

human MAOA = target: T2, human MAOA (Homo sapiens, UniProt P21397); experiment: Purified MAOA, Amplex Red/horseradish peroxidase coupled assay; conditions: 70 nM MAOA, 1 mM kynuramine
T2 construct: made in house; host or cells: Pichia pastoris
T2 sequence (P21397 1-527): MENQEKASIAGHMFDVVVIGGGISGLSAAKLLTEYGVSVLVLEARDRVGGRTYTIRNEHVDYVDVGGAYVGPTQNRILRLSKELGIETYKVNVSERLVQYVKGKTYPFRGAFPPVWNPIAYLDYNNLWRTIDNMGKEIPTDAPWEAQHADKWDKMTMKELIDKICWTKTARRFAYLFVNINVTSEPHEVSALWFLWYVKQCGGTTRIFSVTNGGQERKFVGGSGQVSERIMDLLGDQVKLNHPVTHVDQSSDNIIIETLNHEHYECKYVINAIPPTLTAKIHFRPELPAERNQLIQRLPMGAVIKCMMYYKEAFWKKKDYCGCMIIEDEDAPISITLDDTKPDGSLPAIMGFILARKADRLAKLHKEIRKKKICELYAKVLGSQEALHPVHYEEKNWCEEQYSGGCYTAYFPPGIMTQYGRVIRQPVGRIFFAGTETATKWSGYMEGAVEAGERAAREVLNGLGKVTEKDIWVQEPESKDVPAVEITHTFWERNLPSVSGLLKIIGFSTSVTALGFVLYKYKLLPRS
Description: IC50 values on human MAOA and human MAOB were determined using the Amplex Red/horseradish peroxidase coupled assay. […] Measurements were performed using a ClarioStar plate reader (excitation 572 nm and emission 583 nm) (BMG Labtech). IC50 values were obtained by fitting the percentage of inhibition versus log(inhibitor concentration) using GraphPad software 7.0. The covalent modification of the flavin upon the reaction with the propargylamine-containing inhibitors was monitored spectrophotometrically using a diode array UV/visible spectrophotometer (Agilent Technologies). […] The cofactor covalent modification was monitored over time following the shift of the enzyme-bound flavin (peaks at 370 and 456 nm) to 410 nm (ε410 = 23,500 M^–1 cm^–1) (Figure S10).

NOX2 = NOX2 (Homo sapiens, UniProt P04839); experiment: Human NOX2 isolated membranes, MCLA assay; design: NOX2 was expressed as native protein in X-CGD PLB-985 cells transduced with the RD114 pseudotyped MFGS-NOX2 vector; expressed in transfected cells; host or cells: X-CGD PLB-985 cells transduced with MFGS-NOX2; isolated membranes; Cytosolic proteins made in E. coli; conditions: for IC50: membrane-embedded, 240 μM NADPH, read-out: IC50 on human NOXs, NOX2 (MCLA)
Description: IC50 determinations were performed as described, with the same aforementioned modifications for covalent inhibition. Briefly, 20 μg of NOX2-p22^phox membranes was added to a reaction mix with a 65 mM sodium phosphate buffer (pH 7.0), 0.5 μM FAD, 130 μM LiDS, 160 nM p67^phox, p47^phox, Rac1 Q61L, and 1 μM MCLA or 200 μM bovine cytochrome c. The estimated final protein concentration based on the heme’s absorbance was 60 nM. Compounds were incubated for 1 h at 25 °C, at varying concentrations. The reaction started by adding 240 μM NADPH, and measurements were taken by using a GloMax plate reader (Promega; MCLA) or a Cary 100 UV–vis spectrophotometer (Varian; cytochrome c).

IC50 (Purified human NOX2) | IC50 (human MAOA) | IC50 (NOX2) | potency on purified NOX2 relative to VAS2870 (more potent) (Purified human NOX2; purified NOX2) | potency against NOX2 relative to VAS2870 (more powerful) (NOX2; NOX2 membranes) | IC50 Purified MAOA (human MAOA) | Compound
20.1 ± 0.5 µM | 41.6 ± 3.7 µM | 17.3 ± 2.6 µM | – | – | – | C#CCNC(=O)c1ccc(Cn2nnc3c(Sc4nc5ccccc5o4)ncnc32)cc1 [Compound 8b, (4-((7-Benzo[d]oxazol-2-yl-thio)-3H-[1,2,3]triazole[4,5-d]pyrimidin-3-yl)methyl)-N-(prop-2-in-1-yl)benzamide]
0.155 ± 0.03 µM | 59 ± 5.9 µM | 0.567 ± 0.2 µM | over 20 fold | 2 fold | – | C#CCN(C)Cc1ccc(Cn2nnc3c(Sc4nc5ccccc5o4)ncnc32)cc1 [Compound 9a, N-(4-((7-(Benzo[d]oxazol-2-ylthio)-3H-[1,2,3]triazolo[4,5-d]pyrimidin-3-yl)methyl)benzyl)-N-methylprop-2-yn-1-amine]
3.3 ± 0.06 µM | > 100 µM | 2.8 ± 0.05 µM | – | – | ineffective; also recorded: Not detected | CCCNC(=O)c1ccc(Cn2nnc3c(Sc4nc5ccccc5o4)ncnc32)cc1 [Compound 8a, (4-((7-Benzo[d]oxazol-2-yl-thio)-3H-[1,2,3]triazole[4,5-d]pyrimidin-3-yl)methyl)-N-(propyl)benzamide]
